From ChEMBL document CHEMBL5291721, “A preclinical secondary pharmacology resource illuminates target-adverse drug reaction associations of marketed drugs” (Nat Commun, 2023) come the findings set out here.

One test deals with Histamine H2 receptor (Homo sapiens, UniProt P25021). The test is classed as functional, cell-based.
Test [1] addresses Kappa-type opioid receptor (Homo sapiens, UniProt P41145).
The next test has as its target T1, Estrogen receptor (Homo sapiens, UniProt P03372).
T1 sequence (P03372 whole entry): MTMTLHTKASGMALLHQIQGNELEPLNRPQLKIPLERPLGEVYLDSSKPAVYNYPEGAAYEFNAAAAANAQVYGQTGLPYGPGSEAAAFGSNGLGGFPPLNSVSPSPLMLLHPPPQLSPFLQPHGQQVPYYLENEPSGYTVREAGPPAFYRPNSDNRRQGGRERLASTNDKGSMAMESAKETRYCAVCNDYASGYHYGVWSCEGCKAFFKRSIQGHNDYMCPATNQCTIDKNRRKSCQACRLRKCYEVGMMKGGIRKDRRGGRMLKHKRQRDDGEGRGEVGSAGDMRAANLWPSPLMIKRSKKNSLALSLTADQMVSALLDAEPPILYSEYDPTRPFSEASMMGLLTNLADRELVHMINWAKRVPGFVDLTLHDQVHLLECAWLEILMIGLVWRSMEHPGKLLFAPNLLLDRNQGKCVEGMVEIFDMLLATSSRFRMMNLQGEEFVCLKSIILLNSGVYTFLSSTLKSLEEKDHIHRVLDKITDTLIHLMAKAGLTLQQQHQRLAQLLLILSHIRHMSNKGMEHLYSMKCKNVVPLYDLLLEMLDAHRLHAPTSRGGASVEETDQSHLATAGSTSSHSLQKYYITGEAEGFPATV

The target of test [2] is T2, Cholecystokinin receptor type A (Homo sapiens, UniProt P32238).
T2 sequence (P32238 whole entry): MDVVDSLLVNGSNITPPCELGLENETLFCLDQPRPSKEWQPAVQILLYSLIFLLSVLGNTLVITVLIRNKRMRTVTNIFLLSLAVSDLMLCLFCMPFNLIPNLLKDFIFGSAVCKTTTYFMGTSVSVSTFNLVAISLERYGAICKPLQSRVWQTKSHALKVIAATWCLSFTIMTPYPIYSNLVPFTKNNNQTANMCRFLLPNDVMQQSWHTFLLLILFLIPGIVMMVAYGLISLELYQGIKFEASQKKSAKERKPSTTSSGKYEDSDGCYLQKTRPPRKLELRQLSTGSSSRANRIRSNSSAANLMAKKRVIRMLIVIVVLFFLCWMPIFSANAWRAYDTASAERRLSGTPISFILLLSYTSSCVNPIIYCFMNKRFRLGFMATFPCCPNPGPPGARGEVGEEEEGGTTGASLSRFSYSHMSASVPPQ

The target in a further test is T3, Adenosine receptor A3 (Homo sapiens, UniProt P0DMS8).
T3 sequence (P0DMS8 whole entry): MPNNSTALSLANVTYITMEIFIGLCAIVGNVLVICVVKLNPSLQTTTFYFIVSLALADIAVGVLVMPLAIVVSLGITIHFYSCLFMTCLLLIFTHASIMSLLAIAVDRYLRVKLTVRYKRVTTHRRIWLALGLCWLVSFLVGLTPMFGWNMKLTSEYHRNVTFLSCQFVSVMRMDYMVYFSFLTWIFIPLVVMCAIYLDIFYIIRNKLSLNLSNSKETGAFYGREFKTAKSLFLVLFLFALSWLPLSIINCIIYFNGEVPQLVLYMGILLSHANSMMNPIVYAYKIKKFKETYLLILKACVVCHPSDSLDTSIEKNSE

The target of test [3] is Delta-type opioid receptor (Homo sapiens, UniProt P41143).
The next test deals with T4, Progesterone receptor (Homo sapiens, UniProt P06401).
T4 sequence (P06401 whole entry): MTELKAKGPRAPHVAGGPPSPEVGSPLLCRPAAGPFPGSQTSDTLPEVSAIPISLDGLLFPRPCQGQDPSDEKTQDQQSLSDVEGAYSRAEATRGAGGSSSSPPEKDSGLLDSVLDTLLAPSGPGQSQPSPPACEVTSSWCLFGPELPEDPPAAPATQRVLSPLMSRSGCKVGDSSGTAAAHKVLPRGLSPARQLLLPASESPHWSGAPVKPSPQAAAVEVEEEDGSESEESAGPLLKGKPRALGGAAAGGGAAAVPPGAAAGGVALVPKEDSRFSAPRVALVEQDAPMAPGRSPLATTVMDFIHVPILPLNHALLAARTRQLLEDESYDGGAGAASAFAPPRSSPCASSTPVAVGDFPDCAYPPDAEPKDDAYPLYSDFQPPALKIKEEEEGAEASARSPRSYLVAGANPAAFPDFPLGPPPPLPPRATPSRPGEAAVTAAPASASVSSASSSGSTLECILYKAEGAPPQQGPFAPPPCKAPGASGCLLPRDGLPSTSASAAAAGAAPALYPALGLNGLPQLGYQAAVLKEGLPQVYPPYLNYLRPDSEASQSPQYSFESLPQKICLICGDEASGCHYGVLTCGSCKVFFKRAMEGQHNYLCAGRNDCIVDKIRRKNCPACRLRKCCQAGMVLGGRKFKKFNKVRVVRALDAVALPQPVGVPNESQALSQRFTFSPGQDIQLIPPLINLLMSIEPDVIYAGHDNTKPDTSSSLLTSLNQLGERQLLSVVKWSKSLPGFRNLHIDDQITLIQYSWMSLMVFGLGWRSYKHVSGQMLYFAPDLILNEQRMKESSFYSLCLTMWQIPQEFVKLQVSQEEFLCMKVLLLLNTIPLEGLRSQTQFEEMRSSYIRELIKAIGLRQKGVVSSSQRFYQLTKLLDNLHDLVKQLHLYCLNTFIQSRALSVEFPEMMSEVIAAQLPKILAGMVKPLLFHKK
Type of test: functional.

The next test has as its target Histamine H3 receptor (Homo sapiens, UniProt Q9Y5N1).
Further: assay procedure not described here.

Sequence of Delta-type opioid receptor (P41143 whole entry): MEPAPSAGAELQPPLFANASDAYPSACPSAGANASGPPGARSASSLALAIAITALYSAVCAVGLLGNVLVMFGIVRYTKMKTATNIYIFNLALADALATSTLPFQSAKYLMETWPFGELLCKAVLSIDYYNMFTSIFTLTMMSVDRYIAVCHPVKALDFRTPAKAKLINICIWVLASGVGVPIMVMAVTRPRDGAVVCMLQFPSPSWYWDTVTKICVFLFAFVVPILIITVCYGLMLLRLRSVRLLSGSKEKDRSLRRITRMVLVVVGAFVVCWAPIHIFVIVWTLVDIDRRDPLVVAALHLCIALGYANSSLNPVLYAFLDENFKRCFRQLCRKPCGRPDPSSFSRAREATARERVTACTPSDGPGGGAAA
Sequence of Histamine H2 receptor (P25021 whole entry): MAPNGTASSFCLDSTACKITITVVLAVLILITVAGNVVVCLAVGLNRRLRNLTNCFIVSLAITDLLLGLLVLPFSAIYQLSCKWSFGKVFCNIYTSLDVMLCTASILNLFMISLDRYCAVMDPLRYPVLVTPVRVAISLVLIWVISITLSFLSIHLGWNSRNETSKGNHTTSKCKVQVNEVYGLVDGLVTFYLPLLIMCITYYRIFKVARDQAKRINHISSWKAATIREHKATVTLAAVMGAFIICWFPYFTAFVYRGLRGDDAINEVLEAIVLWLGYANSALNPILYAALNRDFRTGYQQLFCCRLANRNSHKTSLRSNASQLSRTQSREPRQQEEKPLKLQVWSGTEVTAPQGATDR
Sequence of Histamine H3 receptor (Q9Y5N1 whole entry): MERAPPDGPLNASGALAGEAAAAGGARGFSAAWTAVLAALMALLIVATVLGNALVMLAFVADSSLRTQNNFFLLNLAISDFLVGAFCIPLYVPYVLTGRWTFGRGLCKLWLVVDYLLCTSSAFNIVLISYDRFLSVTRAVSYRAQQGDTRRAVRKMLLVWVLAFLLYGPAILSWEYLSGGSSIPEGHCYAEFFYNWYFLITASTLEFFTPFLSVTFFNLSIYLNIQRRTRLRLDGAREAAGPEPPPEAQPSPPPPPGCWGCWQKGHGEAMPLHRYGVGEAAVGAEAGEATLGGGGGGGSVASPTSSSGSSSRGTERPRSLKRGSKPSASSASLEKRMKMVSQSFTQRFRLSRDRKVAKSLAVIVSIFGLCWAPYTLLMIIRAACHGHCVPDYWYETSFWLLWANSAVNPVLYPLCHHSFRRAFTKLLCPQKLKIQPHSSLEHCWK
Sequence of Kappa-type opioid receptor (P41145 whole entry): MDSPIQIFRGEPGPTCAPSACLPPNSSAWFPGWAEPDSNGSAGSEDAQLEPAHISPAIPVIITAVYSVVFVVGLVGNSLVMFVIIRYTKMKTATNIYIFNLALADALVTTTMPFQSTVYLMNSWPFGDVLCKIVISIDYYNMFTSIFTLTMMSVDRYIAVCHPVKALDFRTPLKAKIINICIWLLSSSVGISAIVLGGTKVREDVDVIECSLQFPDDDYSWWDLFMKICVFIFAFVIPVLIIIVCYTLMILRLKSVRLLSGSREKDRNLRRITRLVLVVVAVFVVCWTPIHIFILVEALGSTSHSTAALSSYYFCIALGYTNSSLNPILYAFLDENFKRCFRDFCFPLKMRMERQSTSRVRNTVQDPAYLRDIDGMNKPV

As for `CCC1(C)CC(=O)NC1=O` (stereo not drawn) [ETHOSUXIMIDE], the AC50 at Histamine H2 receptor is over 30 µM; in test [1], over 10 µM; on Estrogen receptor, over 10 µM; in test [2] it was over 10 µM; at Adenosine receptor A3, over 10 µM; in test [3], over 30 µM. Besides, the AC50 on Progesterone receptor was over 10 µM.
Consider `CC(=O)[C@@]1(O)CC[C@H]2[C@@H]3C[C@H](C)C4=CC(=O)C=C[C@]4(C)[C@@]3(F)[C@@H](O)C[C@@]21C` [FLUOROMETHOLONE], for which the AC50 on Histamine H2 receptor was over 10 µM; in test [1], over 10 µM; on Estrogen receptor it was over 30 µM; in test [2], over 10 µM; on Adenosine receptor A3 it was over 10 µM; in test [3] it was over 30 µM. The AC50 was over 10 µM at Histamine H3 receptor and 0.053 µM at Progesterone receptor.
Regarding `Nc1cc(N2CCCCC2)nc(N)[n+]1[O-]` [MINOXIDIL], the AC50 is over 30 µM at Histamine H2 receptor; over 10 µM in test [1]; over 30 µM on Estrogen receptor; over 30 µM in test [2]; over 30 µM at Adenosine receptor A3; over 30 µM in test [3]. Moreover, on Histamine H3 receptor, the AC50 is over 10 µM.
Consider `CN1CCC(=C2c3ccccc3CC(=O)c3sccc32)CC1` [KETOTIFEN], for which the AC50 is over 10 µM on Histamine H2 receptor; 5.38 µM in test [1]; over 10 µM at Estrogen receptor; over 10 µM in test [2]; over 10 µM at Adenosine receptor A3; over 30 µM in test [3]. On Progesterone receptor, this compound had an AC50 of over 10 µM.
In the case of `Cc1cccc(Nc2ccncc2S(=O)(=O)NC(=O)NC(C)C)c1` [TORSEMIDE], the AC50 on Histamine H2 receptor is over 10 µM; in test [1] it was over 10 µM; at Estrogen receptor, over 10 µM; in test [2], over 30 µM; on Adenosine receptor A3, over 30 µM; in test [3], over 30 µM. On Progesterone receptor, this compound showed an AC50 of over 10 µM.
For the compound `CC(NC(C)(C)C)C(=O)c1cccc(Cl)c1` (stereo not drawn) [BUPROPION], the AC50 at Histamine H2 receptor was over 10 µM; in test [2] it was over 30 µM; on Adenosine receptor A3 it was over 30 µM; in test [3], over 10 µM; on Histamine H3 receptor, over 10 µM.
As for `CN1C2CCCC1CC(NC(=O)c1nn(C)c3ccccc13)C2` (stereo not drawn) [GRANISETRON], the AC50 at Histamine H2 receptor is over 10 µM; in test [1], over 10 µM; at Estrogen receptor, over 30 µM; in test [2], over 30 µM; on Adenosine receptor A3, over 30 µM; in test [3] it was over 10 µM. The same compound showed an AC50 at Histamine H3 receptor of over 10 µM.
For `CNCCc1ccccn1` [BETAHISTINE], the AC50 on Histamine H2 receptor is over 30 µM; in test [1], over 30 µM; in test [2] it was over 30 µM; at Adenosine receptor A3, over 30 µM; in test [3], over 30 µM; at Histamine H3 receptor, 11 µM. Further, the AC50 at Progesterone receptor was over 30 µM.
`CCc1ccc(C(=O)C(C)CN2CCCCC2)cc1` (stereo not drawn) [EPERISONE]: the AC50 on Histamine H2 receptor is over 30 µM; in test [1], over 30 µM; in test [2], over 30 µM; on Adenosine receptor A3, over 30 µM; in test [3], 19 µM; at Histamine H3 receptor, 1.3 µM. This compound displayed an AC50 on Progesterone receptor of over 30 µM.
In the case of `CCN(CC)CC(=O)Nc1c(C)cccc1C` [LIDOCAINE], the AC50 (in test [2]; at Adenosine receptor A3) was over 30 µM each time.
For the compound `Cc1nnc2n1-c1ccc(Cl)cc1C(c1ccccc1)=NC2` [ALPRAZOLAM], the AC50 on Histamine H2 receptor was over 10 µM; in test [1], 7.48 µM; on Estrogen receptor, over 30 µM; in test [2], over 30 µM; on Adenosine receptor A3, over 30 µM; in test [3], over 30 µM. Besides, on Histamine H3 receptor, the AC50 was over 10 µM.
In the case of `COc1nc(C)nc(Cl)c1N=C1NCCN1` [MOXONIDINE], the AC50 was 16 µM on Histamine H2 receptor; over 30 µM in test [1]; over 30 µM in test [2]; over 30 µM on Adenosine receptor A3; over 30 µM in test [3]; over 30 µM at Histamine H3 receptor. The compound further displayed an AC50 at Progesterone receptor of over 30 µM.
On to `N=C(N)NC(=O)Cc1c(Cl)cccc1Cl` [GUANFACINE], for which the AC50 at Histamine H2 receptor is over 30 µM; in test [1] it was 5.95 µM; in test [2], over 30 µM; on Adenosine receptor A3, over 30 µM; in test [3], over 30 µM.
Regarding `CC1=C(CC(=O)O)c2cc(F)ccc2/C1=C\c1ccc([S+](C)[O-])cc1` (stereo not drawn), the AC50 at Histamine H2 receptor was over 10 µM; in test [1], over 10 µM; in test [2], over 30 µM; at Adenosine receptor A3, over 30 µM; in test [3], over 30 µM; on Histamine H3 receptor, over 10 µM.
For the compound `OCCN(CCO)c1nc(N2CCCCC2)c2nc(N(CCO)CCO)nc(N3CCCCC3)c2n1` [DIPYRIDAMOLE], the AC50 at Histamine H2 receptor was over 30 µM; in test [1], over 30 µM; at Estrogen receptor it was over 30 µM; in test [2], over 30 µM; on Adenosine receptor A3, 24.7 µM; in test [3], over 30 µM.
As to `Nc1ccc(S(=O)(=O)Nc2ncccn2)cc1` [SULFADIAZINE], the AC50 on Histamine H2 receptor was over 10 µM; in test [1], over 10 µM; in test [2], over 10 µM; at Adenosine receptor A3, over 10 µM; in test [3], over 30 µM; on Histamine H3 receptor, over 10 µM. At Progesterone receptor, this compound yielded an AC50 of over 10 µM.
On to `O=C1CN=C(c2ccccc2Cl)c2cc([N+](=O)[O-])ccc2N1` [CLONAZEPAM], for which the AC50 is over 10 µM at Histamine H2 receptor; over 10 µM in test [1]; over 30 µM on Estrogen receptor; over 30 µM in test [2]; over 30 µM at Adenosine receptor A3; over 30 µM in test [3]. Further, the AC50 at Histamine H3 receptor is over 10 µM.
In the case of `CC1Cc2ccccc2N1NC(=O)c1ccc(Cl)c(S(N)(=O)=O)c1` (stereo not drawn) [INDAPAMIDE], the AC50 at Histamine H2 receptor was over 10 µM; in test [1], over 10 µM; at Estrogen receptor it was over 30 µM; in test [2], over 30 µM; on Adenosine receptor A3, over 30 µM; in test [3], over 30 µM. Further, the AC50 on Histamine H3 receptor is over 10 µM.
Consider `CCOC(=O)C1=C(C)NC(C)=C(C(=O)OC)C1c1cccc(Cl)c1Cl` (stereo not drawn) [FELODIPINE], for which the concentration at half-maximal activity (AC50) is over 10 µM on Histamine H2 receptor; 8.88 µM in test [1]; over 30 µM on Estrogen receptor; over 30 µM in test [2]; 7.91 µM on Adenosine receptor A3; over 10 µM in test [3]. The same compound had an AC50 on Histamine H3 receptor of over 10 µM.

Broadly, the AC50 is the concentration at which the activity in the assay is half-maximal. Higher therefore signals activity only at high concentration.
